Measured values as given in patent US10828315B2 (Madrigal Pharmaceuticals, Inc., priority 2013, dated 2020).
“And” between values parts separate entries of the source, which are not always exact repeats. Equal entries are not always repeated. Where two headings read alike, the source gives them in different places. Blank lines part the entries; values can stand above or below the molecule they belong to.

Assays:
HER2 [1] = assay: HER2 degradation in BT-474 cells (Example 3, Methods 1 and 2); format: cell-based, human
From the text: This example illustrates how a HER2 degradation assay may be used as a test to determine and select Hsp90-targeting moieties suitable for use in SDC-TRAPs of the invention, and further illustrates the ability of SDC-TRAPs to target cells preferentially expressing Hsp90. Such a test may further be used to determine the Hsp90 binding ability of SDC-TRAPs of the invention, as well as through competitive binding assays and cell-based Hsp90 client protein degradation assays known in the art.
After treatment, each cytoplasmic sample is prepared from 1×10^6 cells by incubation of cell lysis buffer (#9803, Cell Signaling Technology) on ice for 10 minutes. The resulting supernatant used as the cytosol fractions is dissolved with sample buffer for SDS-PAGE and run on a SDS-PAGE gel, blotted onto a nitrocellulose membrane by using semi-dry transfer. Non-specific binding to nitrocellulose is blocked with 5% skim milk in TBS with 0.5% Tween at room temperature for 1 hour, then probed with anti-HER2/ErB2 mAb (rabbit IgG, #2242, Cell Signaling) and anti-Tubulin (T9026, Sigma) as housekeeping control protein. HRP-conjugated goat anti-rabbit IgG (H+L) and HRP-conjugated horse anti-mouse IgG (H+L) are used as secondary Ab (#7074#7076, Cell Signaling) and LumiGLO reagent, 20× Peroxide (#7003, Cell Signaling) is used for visualization. The Hsp90 client protein HER2 is degraded when cells are treated with Hsp90-targeting moieties or SDC-TRAPs of the invention.
BT-474 cells are plated in the interior 60 wells of a 96 well black clear bottom plate (20,000 cells/well) in DMEM medium, with DMEM media in the surrounding 36 wells, and incubated at 37° C. with 5% CO2 overnight. On the second day, concentration response curve source plates are produced (10 point, 3-fold dilution of compounds in DMSO) followed by a 1:30 dilution in an intermediate dilution plate containing DMEM. Compound is transferred from the intermediate plate to the cell plate at a dilution of 1:10. The cells are then incubated at 37° C. with 5% CO2 for 24 hours.
Cells are then fixed in 4% phosphate-buffered paraformaldehyde for 30 minutes at room temperature and then permeabilized by washing five times with 0.1% Triton X-100 in PBS for 5 minutes at room temperature on a shaker. […] Cells are washed five times with 0.1% Tween-20 in PBS for 5 minutes at room temperature on a shaker and incubated with fluorescently-labeled secondary antibody (LI-COR, #926-32211) diluted 1:1000 in blocking buffer, and DRAQ5 nuclear stain (Biostatus Limited, # DRAQ5) diluted 1:10,000, at room temperature on a shaker for 1 hour. Cells are washed 5 times with 0.1% Tween-20 in PBS for 5 minutes at room temperature on a shaker and imaged on a LI-COR Odyssey imaging station. The raw data is normalized to DRAQ5 and the HER2 EC50 is calculated using XLfit™.

Human H3122 NSCLC cells = assay: Cell viability assay (CellTiter-Glo) in H3122 cells (Example 4); format: cell-based; conditions: NCI-H3122
Experimental: Human H3122 NSCLC cells were obtained and grown in RPMI in the presence of fetal bovine serum (10%), 2 mM L-glutamine and antibiotics (100 IU/ml penicillin and 100 μg/ml streptomycin, Sigma Aldrich.) Cells were maintained at 37° C., 5% CO2 atmosphere.
Cell viability was measured using the CellTiter-Glo® assay (Promega). In brief, cells were plated in 96-well plates in triplicate at optimal seeding density (determined empirically) and incubated at 37° C., 5% CO2 atmosphere for 24 hr prior to the addition of drug or vehicle (0.3% DMSO) to the culture medium. At the end of the assay, CellTiter-Glo was added to the wells per manufacturer's recommendation, shaken for two minutes and incubated for 10 minutes at room temperature. Luminescence (0.1 sec) was measured with a Victor II microplate reader (Perkin Elmer) and the resulting data were used to calculate cell viability, normalized to vehicle control.
Cells as described above were treated with exemplary SDC-TRAPs and their viability determined as above as well. The following table illustrates the results.

H 3211 NSLC cells = assay: IC50 of continuous and pulsed exposure (Examples 9 and 10); format: cell-based
HER2 [2] = assay: HER2 degradation assay with BT-474 cell line (Example 12, FACS); format: cell-based, human
[3] = Artificial membrane permeability assay (PAMPA); conditions: incubation 5 h, first table
[4] = Tissue Distribution Data for SDC-TRAP-0045
[5] = Mouse plasma stability protocol, up to 1 h (Examples 16-18)
[6] = Stability in cell culture media (Example 18)
[7] = read-out: IC50, 72h-continuous, 7.5 × 10^3 cells/well, three replicate columns

Compound: CCc1c2c(nc3ccc(OC(=O)N(C)CCN(C)C(=O)c4cc5cc(-n6c(O)nnc6-c6cc(C(C)C)c(O)cc6O)ccc5n4C)cc13)-c1cc3c(c(=O)n1C2)COC(=O)C3(O)CC (stereo not drawn) [SDC-TRAP-0010]
IC50 (HER2 [1]): > 5000 nM
IC50 (Human H3122 NSCLC cells): 234 nM
IC50 (H 3211 NSLC cells; [7]): 144 nM and 327 nM and 232 nM
IC50 (HER2 [2]): > 5000 nM

Compound: CC(C)c1cc(-c2nnc(O)n2-c2ccc3c(ccn3CCOCCNC(=O)CCCC(=O)Nc3cccc4c3CN(C3CCC(=O)NC3=O)C4=O)c2)c(O)cc1O (stereo not drawn) [SDC-TRAP-0015, N1-(2-(2-(5-(3-(2,4-dihydroxy-5-isopropylphenyl)-5-hydroxy-4H-1,2,4-triazol-4-yl)-1H-indol-1-yl)ethoxy)ethyl)-N5-(2-(2,6-dioxopiperidin-3-yl)-1-oxoisoindolin-4-yl)glutaramide]
IC50 (Human H3122 NSCLC cells): 1270 nM
IC50 (H 3211 NSLC cells; [7]): 796 nM

Compound: CCc1c2c(nc3ccc(OCC(=O)NCCn4ccc5cc(-n6c(O)nnc6-c6cc(C(C)C)c(O)cc6O)ccc54)cc13)-c1cc3c(c(=O)n1C2)COC(=O)C3(O)CC (stereo not drawn) [SDC-TRAP-0023, 2-((4,11-diethyl-4-hydroxy-3,14-dioxo-3,4,12,14-tetrahydro-1H-pyrano[3′,4′:6,7]indolizino[1,2-b]quinolin-9-yl)oxy)-N-(2-(5-(3-(2,4-dihydroxy-5-isopropylphenyl)-5-hydroxy-4H-1,2,4-triazol-4-yl)-1H-indol-1-yl)ethyl)acetamide]
IC50 (Human H3122 NSCLC cells): 137 nM
IC50 (H 3211 NSLC cells; [7]): < 12 nM

Compound: CCc1c2c(nc3ccc(O)cc13)-c1cc3c(c(=O)n1C2)COC(=O)C3(CC)OC(=O)CCCNC(=O)c1cc2cc(-n3c(O)nnc3-c3cc(C(C)C)c(O)cc3O)ccc2n1C (stereo not drawn) [SDC-TRAP-0024, 4,11-diethyl-9-hydroxy-3,14-dioxo-3,4,12,14-tetrahydro-1H-pyrano[3′,4′:6,7]indolizino[1,2-b]quinolin-4-yl 4-(5-(3-(2,4-dihydroxy-5-isopropylphenyl)-5-hydroxy-4H-1,2,4-triazol-4-yl)-1-methyl-1H-indole-2-carboxamido)butanoate]
IC50 (HER2 [1]): > 5000 nM
IC50 (Human H3122 NSCLC cells): 99 nM
IC50 (H 3211 NSLC cells; read-out: IC50, 1h-pulse/71h-compound free, 7.5 × 10^3 cells/well, two replicate columns): 697 nM and 2210 nM
IC50 (H 3211 NSLC cells; [7]): < 12 nM and 118 nM and 104 nM

Compound: CCc1c2c(nc3ccc(OCC(=O)N(C)CCn4ccc5cc(-n6c(O)nnc6-c6cc(C(C)C)c(O)cc6O)ccc54)cc13)-c1cc3c(c(=O)n1C2)COC(=O)C3(O)CC (stereo not drawn) [SDC-TRAP-0027, 2-((4,11-diethyl-4-hydroxy-3,14-dioxo-3,4,12,14-tetrahydro-1H-pyrano[3′,4′:6,7]indolizino[1,2-b]quinolin-9-yl)oxy)-N-(2-(5-(3-(2,4-dihydroxy-5-isopropylphenyl)-5-hydroxy-4H-1,2,4-triazol-4-yl)-1H-indol-1-yl)ethyl)-N-methylacetamide]
IC50 (Human H3122 NSCLC cells): 1350 nM
IC50 (H 3211 NSLC cells; 72 h, read-out: IC50, 72h-continuous, 7.5 × 10^3 cells/well, three replicate columns): 984 nM

Compound: CCc1c2c(nc3ccc(OC(=O)N4CCN(c5ccc(-n6c(O)nnc6-c6cc(C(C)C)c(O)cc6O)cc5)CC4)cc13)-c1cc3c(c(=O)n1C2)COC(=O)C3(O)CC (stereo not drawn) [SDC-TRAP-0045, 4,11-diethyl-4-hydroxy-3,14-dioxo-3,4,12,14-tetrahydro-1H-pyrano[3′,4′:6,7]indolizino[1,2-b]quinolin-9-yl 4-(4-(3-(2,4-dihydroxy-5-isopropylphenyl)-5-hydroxy-4H-1,2,4-triazol-4-yl)phenyl)piperazine-1-carboxylate]
IC50 (HER2 [1]): 464 nM
Plasma Conc. ([4]; Time (h) 0.083): 689000 nM
Tumor Conc. ([4]; Time (h) 0.083): 4.30 nmol/g of tissue
Tumor/Plasma Ratio ([4]; Time (h) 0.083): 0.00624
Plasma Conc. ([4]; Time (h) 6): 1880 nM
Tumor Conc. ([4]; Time (h) 6): 2.55 nmol/g of tissue
Tumor/Plasma Ratio ([4]; Time (h) 6): 1.35
Plasma Conc. ([4]; Time (h) 12): 141 nM
Tumor Conc. ([4]; Time (h) 12): 1.13 nmol/g of tissue
Tumor/Plasma Ratio ([4]; Time (h) 12): 8.02
Plasma Conc. ([4]; Time (h) 24): 11.3 nM
Tumor Conc. ([4]; Time (h) 24): BQL
Plasma Conc. ([4]; Time (h) 48): BQL
Tumor Conc. ([4]; Time (h) 48): BQL
% Remaining (1 h) ([5]; % Remaining of parent after 1 h incubation in mouse plasma at 37° C. (10 μM)): 45.0%
% Remaining (1 h, 37° C.) ([5]; mouse plasma, 1 h, 37° C.): 45%
Mouse (10 μM) % Remaining 1 h (37° C.)§ ([5]; mouse plasma, data from single parent peak): 34%
Mouse (10 μM) % Remaining 1 h (37° C.)* ([5]; mouse plasma, sum of both peaks): 45%
Media (5 μM) % Remaining 19 h (37° C.) [6]: 50%
Media (5 μM) % Remaining 1 h (37° C.)§ ([6]; data from single parent peak): 72%
Media (5 μM) % Remaining 1 h (37° C.)* ([6]; sum of both peaks): 77%
IC50 (HER2 [2]): 464 nM

The remaining lines, values ahead:

IC50 (Human H3122 NSCLC cells): > 3000 nM
Compound: CC(C)c1cc(-c2nnc(O)n2-c2ccc3c(ccn3CCC(=O)Nc3cccc4c3CN(C3CCC(=O)NC3=O)C4=O)c2)c(O)cc1O (stereo not drawn) [SDC-TRAP-0017, 3-(5-(3-(2,4-dihydroxy-5-isopropylphenyl)-5-hydroxy-4H-1,2,4-triazol-4-yl)-1H-indol-1-yl)-N-(2-(2,6-dioxopiperidin-3-yl)-1-oxoisoindolin-4-yl)propanamide]

IC50 (Human H3122 NSCLC cells): 620 nM
Mass Retention [3]: 14.7%
Compound: CC(C)c1cc(-c2nnc(O)n2-c2ccc3c(ccn3CCN(C)C(=O)CCCC(=O)Nc3cccc4c3CN(C3CCC(=O)NC3=O)C4=O)c2)c(O)cc1O (stereo not drawn) [SDC-TRAP-0018, N1-(2-(5-(3-(2,4-dihydroxy-5-isopropylphenyl)-5-hydroxy-4H-1,2,4-triazol-4-yl)-1H-indol-1-yl)ethyl)-N5-(2-(2,6-dioxopiperidin-3-yl)-1-oxoisoindolin-4-yl)-N1-methylglutaramide]

IC50 (Human H3122 NSCLC cells): 393 nM
Compound: CC(C)c1cc(-c2nnc(O)n2-c2ccc3c(ccn3CCN(C)C(=O)c3ccc(CCc4c[nH]c5nc(N)[nH]c(=O)c45)cc3)c2)c(O)cc1O [SDC-TRAP-0019, 4-(2-(2-amino-4-oxo-4,7-dihydro-3H-pyrrolo[2,3-d]pyrimidin-5-yl)ethyl)-N-(2-(5-(3-(2,4-dihydroxy-5-isopropylphenyl)-5-hydroxy-4H-1,2,4-triazol-4-yl)-1H-indol-1-yl)ethyl)-N-methylbenzamide]

IC50 (Human H3122 NSCLC cells): 1740 nM
Compound: CC(C)c1cc(-c2nnc(O)n2-c2ccc3c(ccn3CCOCCNC(=O)c3ccc(CCc4c[nH]c5nc(N)[nH]c(=O)c45)cc3)c2)c(O)cc1O [SDC-TRAP-0020, 4-(2-(2-amino-4-oxo-4,7-dihydro-3H-pyrrolo[2,3-d]pyrimidin-5-yl)ethyl)-N-(2-(2-(5-(3-(2,4-dihydroxy-5-isopropylphenyl)-5-hydroxy-4H-1,2,4-triazol-4-yl)-1H-indol-1-yl)ethoxy)ethyl)benzamide]

IC50 (Human H3122 NSCLC cells): 717 nM
Compound: CC(C)c1cc(-c2nnc(O)n2-c2ccc3c(ccn3CCN(C)C(=O)NCC(=O)Nc3cccc4c3CN(C3CCC(=O)NC3=O)C4=O)c2)c(O)cc1O (stereo not drawn) [SDC-TRAP-0021, 2-(3-(2-(5-(3-(2,4-dihydroxy-5-isopropylphenyl)-5-hydroxy-4H-1,2,4-triazol-4-yl)-1H-indol-1-yl)ethyl)-3-methylureido)-N-(2-(2,6-dioxopiperidin-3-yl)-1-oxoisoindolin-4-yl)acetamide]
